Several values for one entry are separate records, joined by “and”; a condition that tells them apart may be missing. Identical values can stand only once.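 48-hour exposure; five concentrations; linearly interpolated endpoints. GI50 = concentration required for 50% inhibition of growth. At the TGI there is no net growth.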
How the values were obtained:
Assay in all cases: NCI anticancer screen, dose series, 48 h
[1] = system: SW-620 colon
[2] = system: MDA-MB-231 breast
[3] = system: SK-OV-3 ovarian
[4] = system: KM12 colon
[5] = system: MCF7 breast
[6] = system: 786-0 renal
[7] = system: HL-60(TB) leukemia
[8] = system: UACC-62 melanoma
[9] = system: TK-10 renal
[10] = system: SK-MEL-28 melanoma

Compound | GI50 [1] [µM] | TGI [1] | GI50 [2] [µM] | TGI [2] | GI50 [3] [µM] | TGI [3] | GI50 [4] [µM] | TGI [4] | GI50 [5] [µM] | TGI [5] | GI50 [6] [µM] | TGI [6] | GI50 [7] [µM] | TGI [7] [µM] | GI50 [8] [µM] | TGI [8] | GI50 [9] [µM] | TGI [9] | GI50 [10] [µM] | TGI [10]
O=C(c1ccc2ccccc2c1)c1c(C(F)(F)F)n([O-])c2cc(Cl)c(Cl)cc2[n+]1=O | 1.63 | 2.98 µM | 1.49 | 2.82 µM | 1.58 | 3.15 µM | 1.53 | 2.86 µM | 1.68 | 3.41 µM | 1.69 | 3.06 µM | 1.81 | 3.87 | 1.61 | 2.96 µM | 1.77 | 3.15 µM | 1.74 | 3.57 µM
Cc1ccc2c(C(C[N+](=O)[O-])c3cccs3)c(-c3ccccc3)[nH]c2c1 (stereo not given) | 1.39 | 8.12 µM | 1.65 | 6.31 µM | 3.44 | 19.7 µM | 1.54 | 7.25 µM | 1.41 | 12.8 µM | 2.26 | 7.89 µM | 1.14 | 14.6 | 1.4 | 5.58 µM | 7.46 | 18.5 µM | 2.99 | 8.41 µM
O=C(Nc1nc2ccccc2s1)OCC(F)(F)F | > 100 | > 100 µM | > 100 | > 100 µM | > 100 | > 100 µM | > 100 | > 100 µM | > 100 | > 100 µM | > 100 | > 100 µM | > 100 | > 100 | > 100 | > 100 µM | > 100 | > 100 µM | > 100 | > 100 µM
CSc1nc(SC)c2c(CN=[N+]=[N-])c(Br)n(Cc3ccccc3)c2n1 | – | > 100 µM | – | > 100 µM | – | > 100 µM | – | > 100 µM | – | > 100 µM | – | > 100 µM | – | > 100 | – | > 100 µM | – | > 100 µM | – | > 100 µM
CC(C)(C)OC(=O)n1cc(CNC(=S)Nc2ccccc2)c2ccccc21 | 13.1 | 26.2 µM | 15.5 | 28.8 µM | 26.4 | 90.1 µM | 5.34 | 18.4 µM | 9.02 | 48 µM | 17.7 | 34.5 µM | 11.6 | 55.3 | 13.3 | 26.1 µM | 14.6 | 53.9 µM | 27.4 | 95.3 µM
COc1ccc(/C=C/C=C(/C#N)C(N)=S)cc1 | 21.3 | 61.2 µM | 26.9 | 87.4 µM | 96.1 | > 100 µM | 21.3 | 89.4 µM | 29.5 | > 100 µM | 33.3 | > 100 µM | 26 | > 100 | 19.3 | 37.9 µM | 37.6 | > 100 µM | 23.8 | 65.7 µM
Brc1cccc(-c2cc(-c3ccc4c(c3)OCCO4)[nH]n2)c1 | 0.785 | 35.3 µM | 3.65 | 32.7 µM | 1.69 | 43.6 µM | 0.669 | 25.5 µM | 1.06 | 41.2 µM | 2.51 | 28.4 µM | 0.891 | 17.5 | 0.871 | 40.9 µM | 3.3 | 40.7 µM | 11.2 | 55.5 µM
COC1(C(=O)N2Cc3nc(Cl)nc(N[C@H](C)c4cc(N)cc(C(F)(F)F)c4)c3C2)CCOCC1 | 24.8 | > 86.3 µM | 15.9 | 31.3 µM | 17.7 | 58.5 µM | 13.6 | 54.3 µM | 17.5 | 49.3 µM | 18.7 | 68.4 µM | 22.6 | 66.4 | 13.8 | 27.7 µM | 1.23 | 45.8 µM | 16.2 | 30.9 µM
O=C(c1cccs1)c1c(C(F)(F)F)n([O-])c2ccccc2[n+]1=O | 1.01 | 5.94 µM | 0.639 | 1.53 µM | 2.11 | 7.56 µM | 1.12 | 3.07 µM | 0.549 | 1.95 µM | 0.521 | 1.45 µM | 0.25 | 0.966 | 0.743 | 1.6 µM | 1.6 | 5.43 µM | 5.59 | 14.5 µM
C=CC(=O)N[C@H]1C=C(C)c2c(-c3cnc4ccccc4c3)c3c(N)ncnc3n2C1 | 23.8 | > 95.5 µM | 9.57 | 27 µM | 0.171 | 4.2 µM | 19.5 | 45.6 µM | 21.1 | > 100 µM | 5.14 | 36.8 µM | 29.8 | > 80.4 | 8.05 | 24.8 µM | 0.0478 | 7.88 µM | 19.3 | 68.6 µM
CCN1CCN(c2nc(NCCCNc3ccnc4cc(Cl)ccc34)c3ccccc3n2)CC1 | 2.36 | 7.63 µM | 2.08 | 5.14 µM | 2.98 | 9.23 µM | 2.74 | 11.4 µM | 1.93 | 11.1 µM | 2.18 | 5.82 µM | 2.18 | 4.25 | 1.87 | 3.58 µM | 2.17 | 4.79 µM | 1.91 | 3.9 µM
Clc1ccccc1C(c1ccccc1)(c1ccccc1)n1ccnc1 | 3.28 | 13.3 µM and 40.1 µM | 2.13 | 6.72 µM and 38.6 µM | 3.71 | 13.7 µM and 29.2 µM | 2.23 | 6.25 µM and 36.8 µM | 2.89 | 11.8 µM and 24.7 µM | 3.05 | 10.6 µM and 43 µM | 1.72 | 5.21 | 1.44 | 6.68 µM and 27.9 µM | 3.88 | 13.5 µM and 30.9 µM | 3.86 | 15.6 µM and 36.1 µM
COc1ccc(C(=S)N2CCN(c3cccc(Cl)c3)CC2)cc1 | > 100 | > 100 µM | 43.9 | > 100 µM | > 100 | > 100 µM | > 100 | > 100 µM | 75 | > 100 µM | > 100 | > 100 µM | > 100 | > 100 | 78.2 | > 100 µM | > 100 | > 100 µM | > 100 | > 100 µM

Source: PubChem BioAssay (NCI)
